Data taken from the supplement of paper PMC11061612.

Key:
[1] = compound: Cc1cc2ncnn2cc1Nc1ncc2c(n1)n(C1CCOCC1)c(=O)n2C [AZD7648]; settings: max 10 µM
Summary of the method: (§1)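 Cancer cell lines were seeded in 1536-well plates in 7.5 μl DMEM/F12 or RPMI with 10% FBS, held 24 hours at 37°C and 5% CO2, then dosed for 72 hours (final DMSO typically 0.2%). Viability was read by CellTiter-Glo 2.0 luminescence and scaled between blank-well and DMSO-well means. The single-agent IC50 comes from dose responses fitted to a two-parameter logistic curve with a non-linear mixed effects model.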

[2] = compound: C1CN(CCC1(C(=O)N[C@@H](CCO)C2=CC=C(C=C2)Cl)N)C3=NC=NC4=C3C=CN4 [AZD5363]; settings: max 10 µM
Summary of the method: as §1

[3] = compound: CCN(CCO)CCCOc1ccc2c(Nc3cc(CC(=O)Nc4cccc(F)c4)[nH]n3)ncnc2c1 [AZD2811]; settings: max 1 µM
Summary of the method: as §1

[4] = compound: C[C@@H](Nc1cc(F)cc(F)c1)c1cc(C(=O)N(C)C)cc2c(=O)cc(N3CCOCC3)oc12 [AZD8186]; settings: max 10 µM
Summary of the method: as §1

[5] = compound: N#Cc1cnc(Nc2cc(NC[C@H]3CNCCO3)c(C(F)(F)F)cn2)cn1 [SRA737]; settings: max 10 µM
Summary of the method: as §1

[6] = compound: CN(C)CCCOc1ccc(-c2ccc3ncc4c(c3c2)n(C2CCOCC2)c(=O)n4C)cn1 [AZD0156]; settings: max 3 µM
Summary of the method: as §1

[7] = compound: COc1nnc2ccc(N3CCC(c4ccc(OCCN5CCN(C)C(=O)[C@H]5C)cc4)CC3)nn12 [AZD5153]; settings: max 1 µM
Summary of the method: as §1

[8] = compound: CN(CC[C@H](CSC1=CC=CC=C1)NC2=C(C=C(C=C2)S(=O)(=O)NC(=O)C3=CC=C(C=C3)N4CCC(CC4)[C@H](C5=CC=CC=C5C6=CC=C(C=C6)Cl)O)S(=O)(=O)C(F)(F)F)CCO [AZD4320]; settings: max 1 µM
Summary of the method: as §1

[9] = compound: COc1cc([C@@H]2c3cc4c(cc3[C@@H](O[C@@H]3O[C@@H]5CO[C@@H](C)O[C@H]5[C@H](O)[C@H]3O)[C@H]3COC(=O)[C@H]23)OCO4)cc(OC)c1O [Etoposide]; settings: max 10 µM
Summary of the method: as §1

[10] = compound: COc1cc2ncnc(Nc3ccc(F)c(Cl)c3)c2cc1OCCCN1CCOCC1 [Gefitinib]; settings: max 10 µM
Summary of the method: as §1

[11] = compound: O=c1[nH]cc(F)c(=O)[nH]1 [5-Fluorouracil]; settings: max 20 µM
Summary of the method: as §1

[12] = compound: COc1cccc(OCCCN)c1-c1cc(Nc2cnc(C#N)cn2)n[nH]1 [Prexasertib]; settings: max 1 µM
Summary of the method: as §1

[13] = compound: O=C(c1cc(Cc2n[nH]c(=O)c3ccccc23)ccc1F)N1CCN(C(=O)C2CC2)CC1 [Olaparib]; settings: max 10 µM
Summary of the method: as §1

[14] = compound: CCc1c2c(nc3ccc(O)cc13)-c1cc3c(c(=O)n1C2)COC(=O)[C@]3(O)CC [SN-38]; settings: max 0.3 µM
Summary of the method: as §1

[15] = compound: CC(=O)Nc1cccc(-n2c(=O)n(C3CC3)c(=O)c3c(Nc4ccc(I)cc4F)n(C)c(=O)c(C)c32)c1 [Trametinib]; settings: max 1 µM
Summary of the method: as §1

[16] = compound: Nc1ccn([C@@H]2O[C@H](CO)[C@@H](O)C2(F)F)c(=O)n1 [Gemcitabine]; settings: max 0.3 µM
Summary of the method: as §1

[17] = compound: Cc1nc(-c2cn3c(n2)-c2ccc(-c4cnn(C(C)(C)C(N)=O)c4)cc2OCC3)n(C(C)C)n1 [Taselisib]; settings: max 10 µM
Summary of the method: as §1

[18] = compound: C[C@@H](c1ccc2nccn2c1)n1nnc2ncc(-c3cnn(C)c3)nc21 [Savolitinib]; settings: max 1 µM
Summary of the method: as §1

[19] = compound: Cc1c2c(nn1C)CSCc1cc(n(C)n1)CSc1cc(c3ccccc3c1)OCCCc1c(C(=O)O)n(C)c3c-2c(Cl)ccc13 [AZD5991]; settings: max 1 µM
Summary of the method: as §1

[20] = compound: CS(=O)(=O)CCNCc1ccc(-c2ccc3ncnc(Nc4ccc(OCc5cccc(F)c5)c(Cl)c4)c3c2)o1 [Lapatinib]; settings: max 10 µM
Summary of the method: as §1

[21] = compound: CC(=O)c1c(C)c2cnc(Nc3ccc(N4CCNCC4)cn3)nc2n(C2CCCC2)c1=O [Palbociclib]; settings: max 10 µM
Summary of the method: as §1

[22] = compound: NC1(c2ccc(-c3nc4ccn5c(=O)[nH]nc5c4cc3-c3ccccc3)cc2)CCC1 [MK-2206]; settings: max 10 µM
Summary of the method: as §1

[23] = compound: CC(=O)O[C@H]1C(=O)[C@@]2(C)[C@H]([C@H](OC(=O)c3ccccc3)[C@]3(O)C[C@H](OC(=O)[C@H](O)[C@@H](NC(=O)c4ccccc4)c4ccccc4)C(C)=C1C3(C)C)[C@]1(OC(C)=O)CO[C@@H]1C[C@@H]2O [Paclitaxel]; settings: max 3 µM
Summary of the method: as §1

[24] = compound: C[C@@H]1COCCN1C2=NC(=NC(=C2)C3(CC3)[S@](=N)(=O)C)C4=C5C=CNC5=NC=C4 [AZD6738]; settings: max 10 µM
Summary of the method: as §1

[25] = compound: CC1=C(C(=CC=C1)Cl)NC(=O)C2=CN=C(S2)NC3=CC(=NC(=N3)C)N4CCN(CC4)CCO [Dasatinib]; settings: max 2 µM
Summary of the method: as §1

[26] = compound: CC1(C)CCC(CN2CCN(c3ccc(C(=O)NS(=O)(=O)c4ccc(NCC5CCOCC5)c([N+](=O)[O-])c4)c(Oc4cnc5[nH]ccc5c4)c3)CC2)=C(c2ccc(Cl)cc2)C1 [Venetoclax]; settings: max 1 µM
Summary of the method: as §1

[27] = compound: O=C(Nc1ccc2[nH]nc(-c3ccncc3)c2c1)[C@@H]1CCN(CC(=O)N2CCN(c3ccc(-c4ncccn4)cc3)CC2)C1; settings: max 5 µM
Summary of the method: as §1

[28] = compound: COc1cccc2c1C(=O)c1c(O)c3c(c(O)c1C2=O)C[C@@](O)(C(=O)CO)C[C@@H]3O[C@H]1C[C@H](N)[C@H](O)[C@H](C)O1 [Doxorubicin]; settings: max 1 µM
Summary of the method: as §1

[29] = compound: C[C@@H](Oc1cc(-c2cnn(C3CCNCC3)c2)cnc1N)c1c(Cl)ccc(F)c1Cl [Crizotinib]; settings: max 10 µM
Summary of the method: as §1

[30] = compound: CC(C)n1c(=O)n(C)c2cnc3cc(F)c(-c4ccc(OCCCN5CCCCC5)nc4)cc3c21 [AZD1390]; settings: max 0.3 µM
Summary of the method: as §1

[31] = compound: C=CCn1c(=O)c2cnc(Nc3ccc(N4CCN(C)CC4)cc3)nc2n1-c1cccc(C(C)(C)O)n1 [AZD1775]; settings: max 3 µM
Summary of the method: as §1

[32] = compound: Cn1cnc2c(F)c(Nc3ccc(Br)cc3Cl)c(C(=O)NOCCO)cc21 [Selumetinib]; settings: max 10 µM
Summary of the method: as §1

[33] = compound: CC1=CN2[C@@H](C1)C=NC3=CC(=C(C=C3C2=O)OC)OCCCCCOC4=C(C=C5C(=C4)N=C[C@@H]6CC(=CN6C5=O)C)OC [SG3199]; settings: max 0.001 µM
Summary of the method: as §1

[34] = compound: C1CC(C1)(C(=O)[O-])C(=O)[O-].N.N.[Pt+2] [Carboplatin]; settings: max 10 µM
Summary of the method: as §1

[35] = compound: COc1cc(Nc2ncc3c(n2)-c2ccc(Cl)cc2C(c2c(F)cccc2OC)=NC3)ccc1C(=O)O [Alisertib]; settings: max 10 µM
Summary of the method: as §1

Row | Cell Line | IC50, cell viability 72 h [1] | IC50, cell viability 72 h [2] | IC50, cell viability 72 h [3] | IC50, cell viability 72 h [4] | IC50, cell viability 72 h [5] | IC50, cell viability 72 h [6] | IC50, cell viability 72 h [7] | IC50, cell viability 72 h [8] | IC50, cell viability 72 h [9] | IC50, cell viability 72 h [10] | IC50, cell viability 72 h [11] | IC50, cell viability 72 h [12] | IC50, cell viability 72 h [13] | IC50, cell viability 72 h [14] | IC50, cell viability 72 h [15] | IC50, cell viability 72 h [16] | IC50, cell viability 72 h [17] | IC50, cell viability 72 h [18] | IC50, cell viability 72 h [19] | IC50, cell viability 72 h [20] | IC50, cell viability 72 h [21] | IC50, cell viability 72 h [22] | IC50, cell viability 72 h [23] | IC50, cell viability 72 h [24] | IC50, cell viability 72 h [25] | IC50, cell viability 72 h [26] | IC50, cell viability 72 h [27] | IC50, cell viability 72 h [28] | IC50, cell viability 72 h [29] | IC50, cell viability 72 h [30] | IC50, cell viability 72 h [31] | IC50, cell viability 72 h [32] | IC50, cell viability 72 h [33] | IC50, cell viability 72 h [34] | IC50, cell viability 72 h [35]
1 | Mo-T (Other Blood Carcinomas) | > 10 µM | > 10 µM | > 1 µM | > 10 µM | > 10 µM | > 3 µM | 0.343 µM | 0.671 µM | 1.09 µM | > 10 µM | > 20 µM | > 1 µM | > 10 µM | 0.044 µM | > 1 µM | 0.0526 µM | > 10 µM | > 1 µM | > 1 µM | > 10 µM | > 10 µM | > 10 µM | 0.106 µM | > 10 µM | > 2 µM | > 1 µM | > 5 µM | 0.217 µM | > 10 µM | > 0.3 µM | 0.79 µM | > 10 µM | > 0.001 µM | > 10 µM | > 10 µM
2 | NCI-H522 (Lung Adenocarcinoma) | > 10 µM | > 10 µM | > 1 µM | > 10 µM | > 10 µM | > 3 µM | > 1 µM | > 1 µM | > 10 µM | > 10 µM | > 20 µM | > 1 µM | > 10 µM | > 0.3 µM | > 1 µM | > 0.3 µM | > 10 µM | > 1 µM | > 1 µM | > 10 µM | > 10 µM | > 10 µM | 0.0595 µM | > 10 µM | > 2 µM | > 1 µM | > 5 µM | > 1 µM | > 10 µM | > 0.3 µM | > 3 µM | > 10 µM | > 0.001 µM | > 10 µM | > 10 µM
3 | NCI-H1355 (Lung Adenocarcinoma) | > 10 µM | > 10 µM | > 1 µM | > 10 µM | > 10 µM | > 3 µM | > 1 µM | > 1 µM | > 10 µM | > 10 µM | > 20 µM | 0.0865 µM | > 10 µM | > 0.3 µM | > 1 µM | > 0.3 µM | 5.79 µM | > 1 µM | > 1 µM | > 10 µM | > 10 µM | > 10 µM | 0.0429 µM | 8.56 µM | > 2 µM | > 1 µM | > 5 µM | > 1 µM | > 10 µM | > 0.3 µM | > 3 µM | > 10 µM | > 0.001 µM | > 10 µM | > 10 µM
4 | NCI-H1993 (Lung Adenocarcinoma) | > 10 µM | 5.22 µM | > 1 µM | > 10 µM | > 10 µM | > 3 µM | > 1 µM | 0.383 µM | 6.59 µM | > 10 µM | 9.36 µM | 0.0625 µM | > 10 µM | 0.262 µM | 0.0894 µM | 0.0155 µM | 4.52 µM | 0.022 µM | > 1 µM | > 10 µM | > 10 µM | 4.43 µM | 0.0112 µM | > 10 µM | > 2 µM | > 1 µM | 3.25 µM | 0.249 µM | 0.309 µM | > 0.3 µM | 1.34 µM | 9.99 µM | > 0.001 µM | > 10 µM | > 10 µM
5 | OE33 (Esophageal Adenocarcinoma) | > 10 µM | > 10 µM | > 1 µM | > 10 µM | 7.72 µM | > 3 µM | > 1 µM | > 1 µM | > 10 µM | > 10 µM | > 20 µM | 0.0435 µM | > 10 µM | 0.199 µM | > 1 µM | 0.17 µM | > 10 µM | > 1 µM | > 1 µM | > 10 µM | > 10 µM | > 10 µM | 0.736 µM | 2.59 µM | > 2 µM | > 1 µM | > 5 µM | > 1 µM | > 10 µM | > 0.3 µM | 1.59 µM | > 10 µM | > 0.001 µM | > 10 µM | > 10 µM
